Where two headings read alike, the source gives them in different places.
What was measured:
melanoma = conditions: cited from earlier work; for toxicity of intra arterial infusion: intra arterial infusions in the lower limbs, high doses; for efficacy as chemotherapeutic in melanoma: metastatic/disseminated melanoma, intra arterial infusion of high doses
[1] = system: melanocytes and keratinocytes; experiment: in vitro toxic effects on melanocytes and keratinocytes; type: cell-based
Source text: (§1) No reaction occurs in depigmented skin. This entails that the inflammatory reaction is directed towards something, what is only present in melanocytes, e.g. tyrosinase, TRP1 and/or TRP2. However, auto-antibodies to tyrosinase, TRP1 and TRP2 have been reported to occur at low frequencies, or not at all, in vitiligo patients (37,38,39,40,41).

[2] = system: skin of vitiligo patients; experiment: histology of skin of vitiligo patients undergoing depigmentation therapy; type: in vivo, human
Source text: as §1

skin = conditions: cases in workers of polymer or leather industries; cited from earlier work
[3] = system: pigmented skin / depigmented skin; experiment: in vivo inflammatory response of pigmented and depigmented skin; parameters: species or system human
Source text: as §1

metastatic melanoma = conditions: immunotherapy; cited from earlier work

Molecule: COc1ccc(O)cc1 [4-HA, 4-hydroxyanisole]
- toxicity of intra arterial infusion (melanoma): serious renal and hepatic toxicity
- toxicity of intra arterial infusion (melanoma; listed as 4-Hydroxyanisole): severe toxic events
- efficacy as chemotherapeutic in melanoma (melanoma): without success
- efficacy as chemotherapeutic in melanoma (melanoma; listed as 4-Hydroxyanisole): not effective

Molecule: Oc1ccc(OCc2ccccc2)cc1 [Monobenzone, p-(benzyloxy)phenol]
- sensitivity of melanocytes and keratinocytes to the toxic effects [1]: equally sensitive
- histology of skin: infiltrate [2]: dense infiltrate consisting of mainly CD8^+ cells and macrophages
- granulocytes in the skin infiltrate ([2]; granulocytes would indicate a toxic (orthoergic) reaction): no granulocytes
- depigmentation on exposure of the skin (skin): causes leukoderma and can induce vitiligo-like depigmentation
- inflammatory reaction ([3]; depigmented skin): No reaction
- inflammatory response with erythema, edema and scaliness ([3]; pigmented skin): only seen in the pigmented skin

Molecule: CC(C)(C)c1ccc(O)c(O)c1 [TBC, 4-tert-butylcatechol]
- depigmentation on exposure of the skin (skin): causes leukoderma and can induce vitiligo-like depigmentation

B1: interferon (IFNγ): interferon (IFNγ) used as immunotherapy for metastatic melanoma (protein, UniProt P01579 24-161, looked up)
Interferon gamma: QDPYVKEAENLKKYFNAGHSDVADNGTLFLGILKNWKEESDRKIMQSQIVSFYFKLFKNFKDDQSIQKSVETIKEDMNVKFFNSNKKKRDDFEKLTNYSVTDLNVQRKAIHELIQVMAELSPAAKTGKRKRSQMLFRG
- response rate (metastatic melanoma): approximately 15%

Source: patent US9393219B2, “Monophenols and benzenediols sensitization of immune system against haptenized melanoma antigens” (ACADEMISCH ZIEKENHUIS BIJ DE UNIVERSITEIT VAN AMSTERDAM, priority 2005, dated 2016)
